Like-named read-outs stand apart in the source and are kept apart here. Blank lines part the entries; values can stand above or below the molecule they belong to.
Legend:
Assay in all cases: biochemical
Parameters in all cases: DiscoveRx KINOMEscan active site-directed competition binding; percent of control kinase bound to immobilised ligand
PDGFRA = PDGFRA (Homo sapiens, UniProt P16234)
CAMK1 = CAMK1 (Homo sapiens, UniProt Q14012)
IKK-alpha = biological target: T1, IKK-alpha (Homo sapiens, UniProt O15111)
T1 construct: gene CHUK
T1 sequence (O15111 1-745): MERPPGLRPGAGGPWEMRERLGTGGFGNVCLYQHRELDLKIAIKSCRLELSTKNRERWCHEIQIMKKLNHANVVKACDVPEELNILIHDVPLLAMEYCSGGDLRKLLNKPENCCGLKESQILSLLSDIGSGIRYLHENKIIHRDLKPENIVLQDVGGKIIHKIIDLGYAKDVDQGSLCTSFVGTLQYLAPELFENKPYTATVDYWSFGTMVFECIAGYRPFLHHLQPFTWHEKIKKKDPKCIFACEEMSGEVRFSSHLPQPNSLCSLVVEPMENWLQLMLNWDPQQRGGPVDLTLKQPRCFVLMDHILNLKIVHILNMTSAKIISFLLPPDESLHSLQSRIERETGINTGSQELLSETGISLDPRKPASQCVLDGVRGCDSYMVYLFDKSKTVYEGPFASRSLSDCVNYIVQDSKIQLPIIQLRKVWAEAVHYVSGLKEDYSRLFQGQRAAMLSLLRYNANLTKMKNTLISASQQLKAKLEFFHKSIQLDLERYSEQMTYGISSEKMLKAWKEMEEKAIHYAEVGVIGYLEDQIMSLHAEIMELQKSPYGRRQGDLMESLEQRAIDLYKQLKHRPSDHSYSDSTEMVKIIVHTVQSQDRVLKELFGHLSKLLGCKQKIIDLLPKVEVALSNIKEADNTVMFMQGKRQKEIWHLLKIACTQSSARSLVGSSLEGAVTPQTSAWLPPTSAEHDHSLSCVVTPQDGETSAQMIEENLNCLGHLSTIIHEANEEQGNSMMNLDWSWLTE

[1] = biological target: T2, JAK2(JH1domain-catalytic) (Homo sapiens, UniProt O60674)
T2 construct: JH1domain-catalytic

BMX = biological target: T3, BMX (Homo sapiens, UniProt P51813)
T3 sequence (P51813 1-675): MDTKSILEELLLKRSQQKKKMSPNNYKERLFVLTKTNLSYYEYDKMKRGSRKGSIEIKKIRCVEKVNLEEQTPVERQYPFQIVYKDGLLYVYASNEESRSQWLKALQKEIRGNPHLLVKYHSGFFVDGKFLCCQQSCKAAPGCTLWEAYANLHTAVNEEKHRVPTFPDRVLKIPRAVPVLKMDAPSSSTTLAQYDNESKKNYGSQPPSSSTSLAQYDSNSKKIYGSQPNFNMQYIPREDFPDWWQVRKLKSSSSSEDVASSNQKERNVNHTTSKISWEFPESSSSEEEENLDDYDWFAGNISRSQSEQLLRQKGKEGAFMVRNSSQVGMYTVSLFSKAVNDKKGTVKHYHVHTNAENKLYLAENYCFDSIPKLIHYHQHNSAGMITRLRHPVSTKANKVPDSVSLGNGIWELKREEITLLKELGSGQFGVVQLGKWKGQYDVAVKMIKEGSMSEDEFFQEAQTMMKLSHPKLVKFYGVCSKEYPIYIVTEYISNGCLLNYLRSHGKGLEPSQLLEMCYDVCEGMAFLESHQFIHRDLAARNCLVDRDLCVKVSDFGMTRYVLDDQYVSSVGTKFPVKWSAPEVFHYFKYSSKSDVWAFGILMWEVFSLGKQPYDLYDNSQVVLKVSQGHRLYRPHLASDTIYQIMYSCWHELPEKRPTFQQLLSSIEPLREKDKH

MAP4K4 = MAP4K4 (Homo sapiens, UniProt O95819)
Chain of MAP4K4 (O95819 whole entry): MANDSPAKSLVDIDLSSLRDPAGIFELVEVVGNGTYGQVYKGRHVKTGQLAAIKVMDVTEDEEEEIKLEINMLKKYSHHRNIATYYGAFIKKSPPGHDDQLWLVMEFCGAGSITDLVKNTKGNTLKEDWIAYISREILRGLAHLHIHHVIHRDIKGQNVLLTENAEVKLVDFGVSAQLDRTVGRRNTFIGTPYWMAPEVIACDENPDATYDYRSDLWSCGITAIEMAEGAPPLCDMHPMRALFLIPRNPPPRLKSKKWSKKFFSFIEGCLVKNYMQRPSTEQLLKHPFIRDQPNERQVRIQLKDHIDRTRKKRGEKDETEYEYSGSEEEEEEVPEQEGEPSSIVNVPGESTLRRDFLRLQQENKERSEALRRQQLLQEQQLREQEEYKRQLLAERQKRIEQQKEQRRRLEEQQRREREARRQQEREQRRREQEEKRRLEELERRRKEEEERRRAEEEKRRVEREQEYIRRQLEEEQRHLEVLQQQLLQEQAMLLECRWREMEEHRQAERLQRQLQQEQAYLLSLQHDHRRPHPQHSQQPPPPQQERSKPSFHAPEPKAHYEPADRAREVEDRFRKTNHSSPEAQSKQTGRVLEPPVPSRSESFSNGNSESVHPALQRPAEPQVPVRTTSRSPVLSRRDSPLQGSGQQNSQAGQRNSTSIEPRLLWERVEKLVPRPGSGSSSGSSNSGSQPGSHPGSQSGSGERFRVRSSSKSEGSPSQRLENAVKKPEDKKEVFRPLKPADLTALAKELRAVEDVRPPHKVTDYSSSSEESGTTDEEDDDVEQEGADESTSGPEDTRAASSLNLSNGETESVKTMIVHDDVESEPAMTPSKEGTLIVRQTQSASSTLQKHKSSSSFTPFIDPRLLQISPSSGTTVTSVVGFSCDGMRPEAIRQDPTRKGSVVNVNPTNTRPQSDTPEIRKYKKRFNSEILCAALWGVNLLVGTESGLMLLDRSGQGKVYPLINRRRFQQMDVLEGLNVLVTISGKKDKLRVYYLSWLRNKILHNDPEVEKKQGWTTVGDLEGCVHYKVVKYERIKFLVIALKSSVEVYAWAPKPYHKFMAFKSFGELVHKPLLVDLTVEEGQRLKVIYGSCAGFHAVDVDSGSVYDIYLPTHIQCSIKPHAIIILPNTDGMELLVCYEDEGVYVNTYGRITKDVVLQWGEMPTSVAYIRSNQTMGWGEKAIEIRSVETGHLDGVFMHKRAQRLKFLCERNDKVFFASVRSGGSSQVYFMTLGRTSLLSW

CDK5 = CDK5 (Homo sapiens, UniProt Q00535)
Chain of CDK5 (Q00535 whole entry): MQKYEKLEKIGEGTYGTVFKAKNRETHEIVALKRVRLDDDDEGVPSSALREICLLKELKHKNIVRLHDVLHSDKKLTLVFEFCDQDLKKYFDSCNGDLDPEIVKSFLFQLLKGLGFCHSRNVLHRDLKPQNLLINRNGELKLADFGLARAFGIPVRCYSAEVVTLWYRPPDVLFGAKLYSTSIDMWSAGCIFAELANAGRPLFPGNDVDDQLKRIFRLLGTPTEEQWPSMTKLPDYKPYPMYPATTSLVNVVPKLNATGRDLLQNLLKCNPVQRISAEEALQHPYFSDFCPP

ACVR1B = biological target: T4, ACVR1B (Homo sapiens, UniProt P36896)
T4 sequence (P36896 1-505): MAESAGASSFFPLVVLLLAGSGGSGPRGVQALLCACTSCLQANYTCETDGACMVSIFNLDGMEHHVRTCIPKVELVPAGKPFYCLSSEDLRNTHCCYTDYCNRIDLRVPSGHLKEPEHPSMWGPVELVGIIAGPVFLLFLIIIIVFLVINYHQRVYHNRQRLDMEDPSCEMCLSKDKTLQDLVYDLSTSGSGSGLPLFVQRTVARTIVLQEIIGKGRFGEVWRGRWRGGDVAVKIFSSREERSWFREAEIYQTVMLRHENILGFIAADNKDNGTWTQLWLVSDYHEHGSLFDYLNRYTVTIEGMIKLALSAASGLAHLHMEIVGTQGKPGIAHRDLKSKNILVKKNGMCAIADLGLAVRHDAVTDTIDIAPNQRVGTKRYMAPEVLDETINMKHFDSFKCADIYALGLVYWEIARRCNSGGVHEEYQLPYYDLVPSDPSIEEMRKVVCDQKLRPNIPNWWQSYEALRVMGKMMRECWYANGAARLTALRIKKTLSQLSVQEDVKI

RET(V804M) = RET(V804M) (Homo sapiens, UniProt P07949, V804M)
Chain of RET(V804M) (P07949 whole entry V804M): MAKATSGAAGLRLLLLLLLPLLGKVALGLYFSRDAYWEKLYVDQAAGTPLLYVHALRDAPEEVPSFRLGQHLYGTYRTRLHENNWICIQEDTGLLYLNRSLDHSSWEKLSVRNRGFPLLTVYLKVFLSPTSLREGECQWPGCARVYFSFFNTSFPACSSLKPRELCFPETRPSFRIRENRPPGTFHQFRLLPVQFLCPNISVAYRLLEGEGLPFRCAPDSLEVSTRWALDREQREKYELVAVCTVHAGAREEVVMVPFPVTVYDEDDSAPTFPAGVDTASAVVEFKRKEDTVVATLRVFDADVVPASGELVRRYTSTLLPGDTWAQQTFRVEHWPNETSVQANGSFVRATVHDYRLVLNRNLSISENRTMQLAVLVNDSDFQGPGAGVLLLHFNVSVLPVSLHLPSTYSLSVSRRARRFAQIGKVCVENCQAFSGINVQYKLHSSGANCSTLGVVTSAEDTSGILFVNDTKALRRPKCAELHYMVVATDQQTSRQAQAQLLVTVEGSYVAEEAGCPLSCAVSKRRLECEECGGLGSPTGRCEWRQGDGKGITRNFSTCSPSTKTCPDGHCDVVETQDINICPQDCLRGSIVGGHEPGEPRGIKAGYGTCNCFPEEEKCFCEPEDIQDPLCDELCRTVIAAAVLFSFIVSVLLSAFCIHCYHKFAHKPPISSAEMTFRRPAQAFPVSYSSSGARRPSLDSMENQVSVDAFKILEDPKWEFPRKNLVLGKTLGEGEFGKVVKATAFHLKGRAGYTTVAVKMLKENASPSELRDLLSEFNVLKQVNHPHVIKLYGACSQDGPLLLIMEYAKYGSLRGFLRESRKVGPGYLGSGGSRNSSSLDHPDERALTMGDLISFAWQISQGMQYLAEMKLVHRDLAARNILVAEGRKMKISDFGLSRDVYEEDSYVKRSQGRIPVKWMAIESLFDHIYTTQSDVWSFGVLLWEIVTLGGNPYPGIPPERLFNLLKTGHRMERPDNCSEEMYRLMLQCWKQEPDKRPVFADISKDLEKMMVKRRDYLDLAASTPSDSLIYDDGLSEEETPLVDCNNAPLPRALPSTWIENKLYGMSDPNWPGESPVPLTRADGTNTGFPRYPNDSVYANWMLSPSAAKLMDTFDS

[2] = biological target: T5, ABL1(E255K)-phosphorylated (Homo sapiens, UniProt P00519, E255K)
T5 construct: phosphorylated
T5 sequence (P00519 whole entry E255K): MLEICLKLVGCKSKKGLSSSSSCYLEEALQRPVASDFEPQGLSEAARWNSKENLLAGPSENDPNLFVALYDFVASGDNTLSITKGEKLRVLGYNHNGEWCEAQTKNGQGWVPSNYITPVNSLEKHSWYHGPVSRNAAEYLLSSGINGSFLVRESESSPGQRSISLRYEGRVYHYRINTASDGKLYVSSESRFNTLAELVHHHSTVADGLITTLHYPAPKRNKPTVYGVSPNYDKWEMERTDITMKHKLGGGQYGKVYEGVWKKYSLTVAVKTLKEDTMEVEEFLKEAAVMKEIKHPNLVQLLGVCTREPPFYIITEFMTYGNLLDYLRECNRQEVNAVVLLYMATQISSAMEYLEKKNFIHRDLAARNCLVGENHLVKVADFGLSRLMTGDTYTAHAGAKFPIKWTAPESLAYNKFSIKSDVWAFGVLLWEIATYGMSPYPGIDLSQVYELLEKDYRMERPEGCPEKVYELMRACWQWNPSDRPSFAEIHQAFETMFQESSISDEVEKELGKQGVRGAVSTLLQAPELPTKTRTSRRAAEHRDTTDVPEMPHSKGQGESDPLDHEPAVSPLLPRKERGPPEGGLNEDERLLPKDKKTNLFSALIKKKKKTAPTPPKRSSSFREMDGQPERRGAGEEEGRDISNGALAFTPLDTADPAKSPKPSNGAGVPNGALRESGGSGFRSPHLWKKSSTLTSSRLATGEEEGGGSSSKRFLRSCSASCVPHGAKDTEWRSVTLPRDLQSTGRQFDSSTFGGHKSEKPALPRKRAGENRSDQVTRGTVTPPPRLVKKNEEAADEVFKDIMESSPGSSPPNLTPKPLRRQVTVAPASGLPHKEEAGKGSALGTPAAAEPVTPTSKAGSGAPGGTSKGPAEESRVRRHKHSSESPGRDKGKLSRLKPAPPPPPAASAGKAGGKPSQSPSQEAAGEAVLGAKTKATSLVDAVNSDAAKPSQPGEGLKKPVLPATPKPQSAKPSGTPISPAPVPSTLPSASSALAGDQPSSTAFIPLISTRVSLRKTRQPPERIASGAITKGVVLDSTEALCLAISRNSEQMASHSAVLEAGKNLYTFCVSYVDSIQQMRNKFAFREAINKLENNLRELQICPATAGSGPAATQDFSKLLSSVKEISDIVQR

[3] = read-out: Olaparib / %Ctrl @ 10000nM
[4] = read-out: Talazoparib (BMN 673) / %Ctrl @ 10000nM
[5] = read-out: Rucaparib / %Ctrl @ 10000nM, binding competition, % of control
[6] = read-out: Niraparib (MK-4827) / %Ctrl @ 10000nM

Chain of PDGFRA (P16234 whole entry): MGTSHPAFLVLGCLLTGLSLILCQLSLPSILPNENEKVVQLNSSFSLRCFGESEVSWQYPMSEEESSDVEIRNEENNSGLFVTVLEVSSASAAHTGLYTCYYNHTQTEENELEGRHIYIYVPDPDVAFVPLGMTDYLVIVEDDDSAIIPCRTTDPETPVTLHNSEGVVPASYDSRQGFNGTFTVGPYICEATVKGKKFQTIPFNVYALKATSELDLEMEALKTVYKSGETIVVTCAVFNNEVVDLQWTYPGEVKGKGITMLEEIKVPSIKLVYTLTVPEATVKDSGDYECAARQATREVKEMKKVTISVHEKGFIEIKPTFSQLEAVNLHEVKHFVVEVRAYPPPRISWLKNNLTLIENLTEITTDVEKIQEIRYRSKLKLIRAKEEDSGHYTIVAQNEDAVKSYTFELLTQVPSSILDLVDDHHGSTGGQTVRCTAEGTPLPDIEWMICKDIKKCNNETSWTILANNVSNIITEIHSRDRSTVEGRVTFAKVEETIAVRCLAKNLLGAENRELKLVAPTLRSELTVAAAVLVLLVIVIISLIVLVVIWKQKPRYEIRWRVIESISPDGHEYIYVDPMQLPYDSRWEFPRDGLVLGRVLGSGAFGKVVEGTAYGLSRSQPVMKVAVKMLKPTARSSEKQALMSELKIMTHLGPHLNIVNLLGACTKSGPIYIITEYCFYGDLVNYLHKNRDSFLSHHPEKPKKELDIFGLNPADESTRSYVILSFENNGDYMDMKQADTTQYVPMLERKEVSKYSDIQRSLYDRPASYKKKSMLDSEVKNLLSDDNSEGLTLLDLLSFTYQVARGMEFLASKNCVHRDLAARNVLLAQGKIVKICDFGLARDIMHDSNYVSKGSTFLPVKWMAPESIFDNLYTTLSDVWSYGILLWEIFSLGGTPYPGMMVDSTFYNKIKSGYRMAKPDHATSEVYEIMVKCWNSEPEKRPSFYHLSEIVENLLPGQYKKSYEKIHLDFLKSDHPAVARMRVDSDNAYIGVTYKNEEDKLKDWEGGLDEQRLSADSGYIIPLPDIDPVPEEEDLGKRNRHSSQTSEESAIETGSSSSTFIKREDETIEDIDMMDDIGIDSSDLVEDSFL

percent of control binding at 10 µM (PDGFRA; [3]): 75% | percent of control binding at 10 µM (CAMK1; [3]): 100% | percent of control binding at 10 µM (IKK-alpha; [3]): 79% | percent of control binding at 10 µM [1, 3]: 78% | percent of control binding at 10 µM (BMX; [3]): 98% | percent of control binding at 10 µM (MAP4K4; [3]): 100% | percent of control binding at 10 µM (CDK5; [3]): 95% | percent of control binding at 10 µM (ACVR1B; [3]): 100% | percent of control binding at 10 µM (RET(V804M); [3]): 90% | percent of control binding at 10 µM [2, 3]: 89%
Structure (SMILES): O=C(c1cc(Cc2n[nH]c(=O)c3ccccc23)ccc1F)N1CCN(C(=O)C2CC2)CC1 [Olaparib]

percent of control binding at 10 µM (PDGFRA; [4]): 99% | percent of control binding at 10 µM (CAMK1; [4]): 95% | percent of control binding at 10 µM (IKK-alpha; [4]): 100% | percent of control binding at 10 µM [1, 4]: 93% | percent of control binding at 10 µM (BMX; [4]): 100% | percent of control binding at 10 µM (MAP4K4; [4]): 100% | percent of control binding at 10 µM (CDK5; [4]): 98% | percent of control binding at 10 µM (ACVR1B; [4]): 77% | percent of control binding at 10 µM (RET(V804M); [4]): 97% | percent of control binding at 10 µM [2, 4]: 100%
Structure (SMILES): Cn1ncnc1[C@H]1c2n[nH]c(=O)c3cc(F)cc(c23)N[C@@H]1c1ccc(F)cc1 [Talazoparib]

percent of control binding at 10 µM (PDGFRA; [5]): 53% | percent of control binding at 10 µM (CAMK1; [5]): 90% | percent of control binding at 10 µM (IKK-alpha; [5]): 42% | percent of control binding at 10 µM [1, 5]: 70% | percent of control binding at 10 µM (BMX; [5]): 91% | percent of control binding at 10 µM (MAP4K4; [5]): 82% | percent of control binding at 10 µM (CDK5; [5]): 88% | percent of control binding at 10 µM (ACVR1B; [5]): 89% | percent of control binding at 10 µM (RET(V804M); [5]): 99% | percent of control binding at 10 µM [2, 5]: 91%
Structure (SMILES): CNCc1ccc(-c2[nH]c3cc(F)cc4c3c2CCNC4=O)cc1 [Rucaparib]

Structure (SMILES): NC(=O)c1cccc2cn(-c3ccc([C@@H]4CCCNC4)cc3)nc12 [Niraparib]
percent of control binding at 10 µM (PDGFRA; [6]): 69% | percent of control binding at 10 µM (CAMK1; [6]): 80% | percent of control binding at 10 µM (IKK-alpha; [6]): 100% | percent of control binding at 10 µM [1, 6]: 82% | percent of control binding at 10 µM (BMX; [6]): 87% | percent of control binding at 10 µM (MAP4K4; [6]): 94% | percent of control binding at 10 µM (CDK5; [6]): 90% | percent of control binding at 10 µM (ACVR1B; [6]): 95% | percent of control binding at 10 µM (RET(V804M); [6]): 79% | percent of control binding at 10 µM [2, 6]: 64%

From article PMC7026418, “The kinase polypharmacology landscape of clinical PARP inhibitors” (Scientific Reports, 2020)
